Measured values from patent US10350272B2, “Calcitonin analogues for treating diseases and disorders” (KeyBioscience AG, priority 2015, dated 2019).
“Also recorded” adds a separate entry of the source.

Key:
high fat diet (HFD) rats = test: 8-week (56 day) treatment study in high fat diet rats with pair-fed controls (body weight, food intake, adipose tissue, liver TAG, adipokines); type: in vivo, rat; settings: for liver triglyceride / triacylglycerol content: 8 weeks, all dose groups; for body weight: HFD rats, 0.625-10 μg/kg/day, 8 weeks (56 days), vs vehicle and pair-fed
Description: (§1) To obtain obese rats, male Sprague-Dawley rats aged 12 weeks were placed on a diet consisting of regular rodent chow and a 60 kcal % high-fat diet (no. D12495; Research Diets) for a total of 12 wk. Following the 12 weeks on high fat diet the rats were randomized into treatment groups based on weight.
The second study consisted of the following groups: vehicle, KBP-042 0.625 μg/kg/day, KBP-042 1.25 μg/kg/day, KBP-042 2.5 μg/kg/day, KBP-042 5 μg/kg/day, KBP-042 10 μg/kg/day, pair-fed (calorie restriction) matching the 5 μg/kg/day and pair-fed (calorie restriction) matching the 10 μg/kg/day, to allow assessment of the effect of KBP-042 on bodyweight independent of its effect on food intake.
Throughout the experiment the bodyweight and food intake were monitored, and at termination liver and fat depots were collected for weighing and potential analysis of triglyceride content.
(§2) The method is based on Folch et al. At the time of extraction the samples were portioned at 500 mg individually and transferred to glass tubes, followed by the addition of 10 mL 100 μg/mL butylated hydroxytoluene (BHT) in chloroform:methanol 2:1 (v:v), and placed on ice. Each sample was added 150 μL of the internal standard solution. Homogenization was performed using a rotor-stator submersion blender (IKA Ultra-Turrax T25) with the sample tubes submerged in ice-water. The samples were each homogenized for 3×10 seconds with 50 second intervals, where after the homogenate is transferred to 35 mL screw-cap centrifuge tubes. The aggregate was cleaned in 5 mL chloroform:methanol 2:1 in the original glass tube, which was then transferred quantitatively to the homogenate. The homogenate was added 3 mL (0.24 times the total homogenate volume) of 0.73% (w/v) NaCl in MiliQ H2O and mixed, followed by centrifugation at 2800·g for 5 minutes at 4° C., to create a 2-phase system. The lower phase was transferred to a clean 12.5 mL centrifugation tube. The homogenate (the upper phase) was then added 3 mL chloroform:methanol 85:15 and mixed, followed by another centrifugation step. The new lower phase was then isolated and added to the first extract and dried down under nitrogen in a 40° C. water bath, followed by resolubilization in 300 μL chloroform:methanol 2:1. At this point the lipid extracts can be stored at −20° C.
(§3) The lipid extracts were fractionated on amino-propyl columns (Phenomenex Strata NH2, product number: 8B-S009-HBJ). The columns were pre-washed with 2×2 mL chloroform:methanol 23:1 (v:v) and left to dry. During fractionation the columns were not allowed to dry. The columns were primed with 2×1 mL hexane followed by application of the lipid extracts. Fraction 1 containing cholesterol esters was eluted with 3 mL Hexane into a clean tube. Fraction 2 containing TAG was eluted using 3 mL hexane:chloroform:ethylacetate 100:5:5 (v:v:v) into a clean tube. Fraction 3 containing DAG, Cholesterol and Ceramide was eluted using 3×2 mL chloroform:methanol 23:1 (v:v) into a new glass. Fraction 4 containing FFA was eluted using 5 mL 2% acetic acid in diethyl ether into a new glass. Fraction 5 containing PL was eluted using 4 mL methanol into a new glass. Fractions 1 and 2 were dried down under nitrogen at 40° C. and re-dissolved in 300 μL chloroform:methanol 95:5 and stored at −20° C. Fraction 4 and half of fraction 5 (fraction 5A) were dried down under nitrogen at 40° C. and re-dissolved in 300 μL chloroform:methanol 2:1 and stored at −20° C. Fraction 3 was equally dried down and re-dissolved in 135 μL chloroform and 67.5 μL isopropanol, transferred to HPLC vials and stored at −20° C. The other half of fraction (fraction 5B) was dried down under nitrogen and re-dissolved in 200 μL chloroform:isopropanol 1:1 (v:v), transferred to HPLC vials and stored at −20° C.
To allow gas chromatographic analysis of the fatty acids they must be converted to the more volatile Fatty Acid Methyl Ester (FAME) form. […]

obese rats = test: 16-day treatment study in obese rats (bodyweight, food intake, fat depots, liver lipid analysis); type: in vivo, rat; settings: 16 days; for liver arachidonic acid / liver free fatty acids / liver triacylglycerols: extracted liver tissue, 7.5 μg/kg/day
Description: Two studies were conducted, and in both studies the obese rats used were generated as follows:
as §1
The initial study was a 16-day treatment study, in which three groups were studied: Lean (same age but no high fat diet), vehicle (obese control group), and KBP-042 at 7.5 μg/kg/day. Throughout the experiment the bodyweight and food intake were monitored, and at termination liver and fat depots were collected for weighing and potential analysis of triglyceride, free fatty acids and arachidonic acid content.
As the quantification procedure contains several steps an internal standard was added to each sample extraction, which enables the results to be normalized and correcting for any loss. The internal standard was prepared as a solution containing 3.66 mg/mL C19:0 TAG (Sigma-Aldrich, product number: T4632), 2.73 mg/mL C17:0 Phospholipid (PL), 0.4 mg/mL C19:0 FFA (Sigma-Aldrich, product number: N-8263), 0.096 mg/mL C15:0 Diacylglycerol (DAG), 0.06 mg/mL d31-tagged Ceramide, 0.03 mg/mL d7-tagged Sphingosine, 1.036 mg/mL Sitostanol, 0.04 mg/mL d31-tagged Sphingomyelin and 1.596 mg/mL C15:0 Cholesterolester in Chloroform:Methanol 2:1 (v/v).
as §2
as §3, with “Fraction 4 and half of fraction 5 (fraction 5A) were dried down under nitrogen at 40° C. and re-dissolved in 300 μL chloroform:methanol 2:1 and stored at −20° C. Fraction 3 was equally dried down and re-dissolved in 135 μL chloroform and 67.5 μL isopropanol, transferred to HPLC vials and stored at −20° C. The other half of fraction (fraction 5B) was dried down under nitrogen and re-dissolved in 200 μL chloroform:isopropanol 1:1 (v:v), transferred to HPLC vials and stored at −20° C.” left out

[1] = KBP-042 7.5 μg/kg/day, vs saline

Q: How did the plasma adiponectin levels (high fat diet (HFD) rats; 1.25 μg/kg, 2.5 μg/kg, 5 μg/kg and 10 μg/kg, 56 days) turn out when “AcCSNLSTCVLGKLSQELHKLQTYPRTDVGANAP-NH2 (Ac-CSNLSTCVLGKLSQELHKLQTYPRTDVGANAP-NH2; not fully specified (bridges); cysteine pairing not given here) [KBP-042, calcitonin mimetic with Cys1-Cys7 disulphide bridge]” was run?
A: The plasma adiponectin levels was “significantly increased”.

Q: What about the “body weight at day 56” value (high fat diet (HFD) rats; 2.5 μg/kg, 5 μg/kg and 10 μg/kg groups compared to HFD-vehicle) of the same substance?
A: Its value is “significantly lower”.

Q: What about the food efficiency (high fat diet (HFD) rats; 2.5 μg/kg, 5 μg/kg and 10 μg/kg, 56 days, calculated from food intake and body weight change, significantly different from pair-fed controls) of the same substance?
A: Its food efficiency is “drastic reduction”.

Q: What about the plasma leptin levels (high fat diet (HFD) rats; 10 μg/kg compared to the corresponding pair-fed control, 56 days) of the same substance?
A: Its plasma leptin levels is “reached statistical significance”.

Q: And the “liver triacylglycerols (TAG)” value (high fat diet (HFD) rats; 10 μg/kg, 56 days, vs HFD-Vehicle, pair-fed control not significant)?
A: Its value is “significantly reduced”.

Q: What about the “weight of isolated epididymal white adipose tissue” value (high fat diet (HFD) rats; 10 μg/kg, 56 days, vs HFD-vehicle) of the same substance?
A: The value was “significantly reduced”.

Q: And the “weight of isolated perirenal white adipose tissue” value (high fat diet (HFD) rats; 2.5, 5 and 10 μg/kg, 56 days, vs HFD-vehicle, not seen in pair-fed controls)?
A: Its value is “significant reduction in size”.

Q: And the perirenal fat depot (high fat diet (HFD) rats; 8-week study, compared to vehicle, even in a pair fed experiment)?
A: Its perirenal fat depot is “reduced”.

Q: And the “liver triglyceride / triacylglycerol content” value (high fat diet (HFD) rats; compared to vehicle)?
A: The value was “trends indicated a dose-dependent effect”.

Q: And the “liver triglyceride / triacylglycerol content” value (high fat diet (HFD) rats; compared to vehicle, listed as KBP peptide)?
A: The value was “reduced”.

Q: And the “liver triglyceride / triacylglycerol content” value (high fat diet (HFD) rats; compared to vehicle, listed as KBP-peptide)?
A: Its value is “improvement”.

Q: What about the “fatty acid composition of hepatic TAG” value (high fat diet (HFD) rats; 56 days) of the same substance?
A: Its value is “no differences in the relative distribution”.

Q: And the “weight of inguinal white adipose tissue” value (high fat diet (HFD) rats; 56 days)?
A: Its value is “trend towards reducing”.

Q: And the plasma leptin levels (high fat diet (HFD) rats; 56 days, all doses)?
A: The plasma leptin levels was “trend towards reduced levels”.

Q: What about the body weight (high fat diet (HFD) rats) of the same substance?
A: Its body weight is “dose-dependent and sustained reduction of body weight; also recorded: large reduction in body weight and maintained weight loss for 8 weeks”.

Q: What about the body weight (high fat diet (HFD) rats; listed as KBP-peptide) of the same substance?
A: The body weight was “marked weight reduction even when compared to the calorie restricted groups”.

Q: What about the food intake (high fat diet (HFD) rats; first 6 days of treatment, 2.5, 5 and 10 μg/kg, transient) of the same substance?
A: The food intake was “large reduction in food intake”.

Q: And the “fat depots (epididymal visceral fat)” value (obese rats; KBP-042 7.5 μg/kg/day, at termination)?
A: Its value is “fats depots were reduced”.

Q: What about the body weight (obese rats; [1]) of the same substance?
A: The body weight was “marked weight reduction”.

Q: What about the food intake (obese rats; [1]) of the same substance?
A: Its food intake is “pronounced reduction in food intake early”.

Q: And the liver arachidonic acid (obese rats)?
A: The liver arachidonic acid was “reduced the levels”.

Q: And the “liver free fatty acids” value (obese rats)?
A: The value was “reduced”.

Q: What about the liver triacylglycerols (obese rats) of the same substance?
A: Its liver triacylglycerols is “reduced triacylglycerols”.

Q: And the liver arachidonic acid (obese rats; listed as KBP-peptide)?
A: The liver arachidonic acid was “improvement”.

Q: What about the “liver free fatty acids” value (obese rats; listed as KBP-peptide) of the same substance?
A: Its value is “improvement”.

Q: What about the liver triacylglycerols (obese rats; listed as KBP-peptide) of the same substance?
A: Its liver triacylglycerols is “improvement”.
